The numbers were not newly measured in US20240285562A1, “USE OF (S)-3-AMINO-4-(DIFLUOROMETHYLENYL) CYCLOPENT-1-ENE-1-CARBOXYLIC ACID IN THE TREATMENT OF MULTIPLE SCLEROSIS” (Ovid Therapeutics Inc., priority 2023, published 2024), which cites them from elsewhere.

Data set [1] concerns the target aspartate aminotransferase (Asp-AT).
The target in data set [2] is alanine amidotransferase (Ala-AT).
Another data set has as its target T1, OAT (Homo sapiens, UniProt P04181).
T1 sequence (P04181 36-439 limits assumed): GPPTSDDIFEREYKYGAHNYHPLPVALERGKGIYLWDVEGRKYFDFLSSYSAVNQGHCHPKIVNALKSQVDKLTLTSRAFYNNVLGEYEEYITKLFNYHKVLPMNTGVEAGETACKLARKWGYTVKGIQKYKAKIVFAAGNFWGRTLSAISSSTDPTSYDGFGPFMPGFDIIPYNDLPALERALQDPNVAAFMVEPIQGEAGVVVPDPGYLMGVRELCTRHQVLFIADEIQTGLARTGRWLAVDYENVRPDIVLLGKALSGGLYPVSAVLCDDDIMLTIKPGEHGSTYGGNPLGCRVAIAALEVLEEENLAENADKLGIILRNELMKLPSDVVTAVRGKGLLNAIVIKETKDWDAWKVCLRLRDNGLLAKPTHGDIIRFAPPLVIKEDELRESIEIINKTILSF

Data set [3] relates to autoimmune response in EAE. Conditions: oral or parenteral administration, murine EAE.

What is called IC50 is the concentration at which inhibition is half-maximal. As for `N[C@H]1C=C(C(=O)O)CC1=C(F)F` [(S)-3-amino-4-(difluoromethylenyl)cyclopent-1-ene-1-carboxylic acid], the IC50 in data set [1] (reversible inhibition) and in data set [2] (reversible inhibition) was above 4000 µM throughout. For the same molecule, on OAT (ratio of kinact/KI versus CPP-115), the “times more efficient an inactivator of OAT than CPP-115” value is recorded as 9.0 times.
Regarding `NCCCC(=O)O` [GABA, gamma-aminobutyric acid], the “reduction of the damaging autoimmune response” value in data set [3] is listed as “ineffective”.
With `N[C@H]1C[C@@H](C(=O)O)CC1=C(F)F` [CPP-115, (1S,3S)-3-amino+difluoromethylenyl-1-cyclopentanoic acid, reference compound], the “inactivation or inhibition of off-target enzyme” value in data set [1] and in data set [2] was “not to inactivate or inhibit” each time. Moreover, at OAT (OAT inactivation), the Ki is 116 µM.
